Values after ≈ are worked out from the molar mass of the structure shown. Read-outs that look alike come from different tables or passages of the source.
Columns and labels:
[1] = Solubilization test of compound 1 with surfactants in FaSSIF; assay type: physicochemical; conditions: for solubility at 0.5 h / solubility at 1 h / solubility at 2 h / solubility at 4 h: 37° C., read-out: Concentration of API in vehicle
Protocol: 50 mg of compound 1 was weighed into 5 mL of FaSSIF medium containing 5 mg of different surfactants (target concentration of API (compound 1):10 mg/mL). The mixture was shaken at 500 rpm and 37° C. 0.5 mL each of the suspension samples was taken at 0.5 hours, 1 hour, 2 hours, and 4 hours, respectively, centrifuged at 14,000 rpm for 5 minutes, and the supernatant was diluted and analyzed by HPLC.

[2] = Dynamic solubility test (two-step dissolution, SGF then FaSSIF) of solid dispersions; assay type: physicochemical; conditions: 37° C.
Protocol: 20 mg each of the solid dispersion products from formulations 1 to 9 in Example 4 was taken and added with 3 mL of SGF (target concentration of API: […]). The mixture was stirred at 37° C. and 500 rpm for 0.25 hours and 0.5 hours, respectively, followed by sampling. 3 mL of 2× FaSSIF was then added to adjust the solution pH to approximately 6.5. The mixture was stirred for another 0.25 hours, 0.5 hours, 1 hour, and 1.5 hours, respectively, followed by sampling. The collected samples were analyzed by UPLC, and the final solution pH was measured.

[3] = FaSSIF (pH 6.5) with 5 mg Cremophor EL, 50 mg API in 5 mL
[4] = FaSSIF (pH 6.5) with 5 mg Cremophor RH40, 50 mg API in 5 mL
[5] = FaSSIF (pH 6.5) with 5 mg SLS, 50 mg API in 5 mL
[6] = FaSSIF (pH 6.5) with 5 mg Solutol HS15, 50 mg API in 5 mL
[7] = FaSSIF (pH 6.5) with 5 mg VE-TPGS, 50 mg API in 5 mL
[8] = FaSSIF (pH 6.5), no surfactant, 50 mg API in 5 mL
[9] = fassif with poloxamer 188, FaSSIF (pH 6.5) with 5 mg Poloxamer 188, 50 mg API in 5 mL
[10] = fassif with poloxamer 407, FaSSIF (pH 6.5) with 5 mg Poloxamer 407, 50 mg API in 5 mL
[11] = fassif with tween 80, FaSSIF (pH 6.5) with 5 mg Tween 80, 50 mg API in 5 mL

NS(=O)(=O)c1cc(NC(=O)Cc2ccccc2Cl)cc2nn(C(F)F)cc12 [compound 1]
solubility at 0.5 h [1, 3]: 1570 µg/mL (≈ 3800 µM)
solubility at 1 h [1, 3]: 1600 µg/mL (≈ 3870 µM)
solubility at 2 h [1, 3]: 1540 µg/mL (≈ 3710 µM)
solubility at 4 h [1, 3]: 1510 µg/mL (≈ 3640 µM)
solubility at 0.5 h [1, 4]: 1580 µg/mL (≈ 3820 µM)
solubility at 1 h [1, 4]: 1600 µg/mL (≈ 3870 µM)
solubility at 2 h [1, 4]: 1570 µg/mL (≈ 3780 µM)
solubility at 4 h [1, 4]: 1540 µg/mL (≈ 3710 µM)
solubility at 0.5 h [1, 5]: 614 µg/mL (≈ 1480 µM)
solubility at 1 h [1, 5]: 622 µg/mL (≈ 1500 µM)
solubility at 2 h [1, 5]: 639 µg/mL (≈ 1540 µM)
solubility at 4 h [1, 5]: 652 µg/mL (≈ 1570 µM)
solubility at 0.5 h [1, 6]: 1470 µg/mL (≈ 3530 µM)
solubility at 1 h [1, 6]: 1500 µg/mL (≈ 3620 µM)
solubility at 2 h [1, 6]: 1480 µg/mL (≈ 3570 µM)
solubility at 4 h [1, 6]: 1460 µg/mL (≈ 3510 µM)
solubility at 0.5 h [1, 7]: 2110 µg/mL (≈ 5100 µM)
solubility at 1 h [1, 7]: 2120 µg/mL (≈ 5120 µM)
solubility at 2 h [1, 7]: 2090 µg/mL (≈ 5040 µM)
solubility at 4 h [1, 7]: 2080 µg/mL (≈ 5010 µM)
solubility at 0.5 h [1, 8]: 33.9 µg/mL (≈ 81.7 µM)
solubility at 1 h [1, 8]: 22.9 µg/mL (≈ 55.2 µM)
solubility at 2 h [1, 8]: 15.2 µg/mL (≈ 36.6 µM)
solubility at 4 h [1, 8]: 14.9 µg/mL (≈ 35.9 µM)
Solubility of compound 1 with surfactants ([1]; FaSSIF with SLS, Cremophor EL, Cremophor RH40, VE-TPGS, Tween 80, Poloxamer 407, or Solutol HS15, in words): significantly improved
solubility at 0.5 h [1, 9]: 116 µg/mL (≈ 279 µM)
solubility at 1 h [1, 9]: 123 µg/mL (≈ 297 µM)
solubility at 2 h [1, 9]: 104 µg/mL (≈ 251 µM)
solubility at 4 h [1, 9]: 93.9 µg/mL (≈ 226 µM)
solubility at 0.5 h [1, 10]: 838 µg/mL (≈ 2020 µM)
solubility at 1 h [1, 10]: 861 µg/mL (≈ 2070 µM)
solubility at 2 h [1, 10]: 842 µg/mL (≈ 2030 µM)
solubility at 4 h [1, 10]: 797 µg/mL (≈ 1920 µM)
solubility at 0.5 h [1, 11]: 899 µg/mL (≈ 2170 µM)
solubility at 1 h [1, 11]: 893 µg/mL (≈ 2150 µM)
solubility at 2 h [1, 11]: 888 µg/mL (≈ 2140 µM)
solubility at 4 h [1, 11]: 887 µg/mL (≈ 2140 µM)
Solubility of API in vehicle ([2]; Step 1 (SGF, pH 1.6), 0.25 h, target API 2 mg/mL): 33.7 µg/mL
Solubility of API in vehicle ([2]; Step 1 (SGF, pH 1.6), 0.5 h, target API 2 mg/mL): 65.1 µg/mL
Solubility of API in vehicle ([2]; Step 2 (FaSSIF, pH 6.5), 0.75 h): 13.7 µg/mL
Solubility of API in vehicle ([2]; Step 2 (FaSSIF, pH 6.5), 1.0 h): 33.5 µg/mL
Solubility of API in vehicle ([2]; Step 2 (FaSSIF, pH 6.5), 2.0 h): 18.0 µg/mL
Solubility of API in vehicle ([2]; Step 2 (FaSSIF, pH 6.5), […]): 15.0 µg/mL
